Type in all cases: cell-based
Experiment [1] has as its system panel of 8 DLBCL cell lines. Description: ATPLite growth inhibition assay across the cell line panel. As to conditions: single agent, FIG. 9. How it is done:
(§1) The activity of compound I was examined in combination with PCI-32765 (ibrutinib), ABT-199 (venetoclax) and EPZ-6438 (Tazemetostat) across a panel of 8 DLBCL cell lines indicated below (7 GCB subtype cell lines and 1 ABC subtype cell line).
(§2) The effect of test compounds and combinations on growth inhibition as a measure of cell viability was determined in an ATPLite assay. The endpoint readout of the assay was based upon quantitation of ATP as an indicator of viable cells.
Cells were thawed from a liquid nitrogen preserved state. Once cells were expanded and divided at their expected doubling times, screening begins. Cells were seeded in growth media in black 384-well tissue culture treated plates at 500 cells per well (except where noted in Analyzer). […] These Tzero (T0) plates were read using ultra-sensitive luminescence on Envision Plate Readers. […] All data points were collected via automated processes; quality controlled; and analyzed using Horizon Discovery proprietary software. […]
Growth Inhibition (GI) was used as a measure of cell viability. The cell viability of vehicle was measured at the time of dosing (T0) and after seventy two hours (T72). A GI reading of 0% represented no growth inhibition—cells treated with compound and T72 or T120 vehicle signals were matched. […] GI was calculated by applying the following test and equation: […]

The subject of experiment [2] is OCI-Ly19 cells. Description: ATPLite growth inhibition assay, single agent and combination (Loewe synergy). As to conditions: single agent. How it is done: as §1, §2
(§3) Cells were thawed from a liquid nitrogen preserved state. Once cells were expanded and divided at their expected doubling times, screening begins. Cells were seeded in growth media in black 384-well tissue culture treated plates at 500 cells per well (except where noted in Analyzer). Cells were equilibrated in assay plates via centrifugation and placed in incubators attached to the Dosing Modules at 37° C. for 24 hours before treatment. […] These Tzero (T0) plates were read using ultra-sensitive luminescence on Envision Plate Readers. Treated assay plates were incubated with compound for 72 hours. All data points were collected via automated processes; quality controlled; and analyzed using Horizon Discovery proprietary software. Assay plates were accepted if they pass the following quality control standards: relative luciferase values were consistent throughout the entire experiment, Z-factor scores were greater than 0.6, untreated/vehicle controls behaved consistently on the plate.
(§4) Growth Inhibition (GI) was used as a measure of cell viability. The cell viability of vehicle was measured at the time of dosing (T0) and after seventy two hours (T72). A GI reading of 0% represented no growth inhibition—cells treated with compound and T72 or T120 vehicle signals were matched. A GI 100% represented complete growth inhibition—cells treated by compound and To vehicle signals were matched. […] A GI 200% represents complete death of all cells in the culture well. Compounds reaching an activity plateau of GI 200% were considered cytotoxic. GI was calculated by applying the following test and equation: […]
(§5) where T is the signal measure for a test article, V is the vehicle-treated control measure, and V0 is the vehicle control measure at time zero. This formula is derived from the Growth Inhibition calculation used in the National Cancer Institute's[sic] NCl[sic]−60 high throughput screen.
(§6) Loewe Additivity model was used for measuring the effects of drug combinations. The Loewe additivity model is dose-based and applies only to the activity levels achieved by the single agents. Loewe Volume was used to assess the overall magnitude of the combination interaction in excess of the Loewe additivity model. Loewe Volume is particularly useful when distinguishing synergistic increases in a phenotypic activity (positive Loewe Volume) versus synergistic antagonisms (negative Loewe Volume). When antagonisms are observed, the Loewe Volume should be assessed to examine if there is any correlation between antagonism and a particular drug target-activity or cellular genotype. This model defines additivity as a non-synergistic combination interaction where the combination dose matrix surface should be indistinguishable from either drug crossed with itself. The calculation for additivity is:
(§7) To measure combination effects in excess of Loewe additivity, a scalar measure to characterize the strength of synergistic interaction was devised and termed the Synergy Score. The Synergy Score was calculated as:
(§8) Synergy Score=log fX log fYΣ max(0,Idata)(Idata−ILoewe)
(§9) The fractional inhibition for each component agent and combination point in the matrix was calculated relative to the median of all vehicle-treated control wells. The Synergy Score equation integrates the experimentally-observed activity volume at each point in the matrix in excess of a model surface numerically derived from the activity of the component agents using the Loewe model for additivity. […]
A general note: ATP-based viability assays read luminescence as a measure of living cells.

For experiment [3], the system named is NU-DHL-1 cells. The description is as above. As to conditions: single agent. The method, then: as §1, §2, §3, §4, §5, §6, §7, §8, §9
The test system of experiment [4] is OCI-Ly3 cells. Described as above. Conditions: single agent. The method, then:
as §1, §2, §3, §4, §5, §6, §7, §8, §9

Experiment [5] concerns DOHH-2 cells. The description is as above. Conditions: single agent. How it is done:
as §1, §2, §3, §4, §5, §6, §7, §8, §9

In experiment [6] the test system is SU-DHL-10 cells. The description is as above. Conditions: single agent; printed SU-DIAL-10. The method, then: as §1, §2, §3, §4, §5, §6, §7, §8, §9
Experiment [7] deals with Pfeiffer cells. The experiment is described as above. Conditions: single agent. How it is done:
as §1, §2, §3, §4, §5, §6, §7, §8, §9

For `CN1CCC(c2ccccc2CC(C)(C)Nc2nc(N3CCOCC3)nc(-n3c(C(F)F)nc4ccccc43)n2)CC1` [Compound I, 4-(2-(difluoromethyl)-1H-benzo[d]imidazol-1-yl)-N-(2-methyl-1-(2-(1-methylpiperidin-4-yl)phenyl)propan-2-yl)-6-morpholino-1,3,5-triazin-2-amine], the growth inhibition levels in experiment [1] (all cell lines) is recorded as over 50%. Moreover, the GI50 in experiment [1] (median across cell line panel) stood at 1730 nM. The “kind of growth inhibition effect (FIG. 10)” value is reported as “cytotoxic effects” in experiment [2]; “sub-cytostatic effects” in experiment [3]; “cytotoxic effects” in experiment [4]; “cytotoxic effects” in experiment [5]; “sub-cytostatic effects” in experiment [6]; “sub-cytostatic effects” in experiment [7].

The term GI50 denotes the concentration that inhibits growth by half.

The values are drawn from patent publication US20190201409A1, “COMBINATION THERAPY” (MEI Pharma, Inc., priority 2016, published 2019).
